Laboratory results published in paper PMC8359378 (British Journal of Clinical Pharmacology, 2021).

Experiments:
[1] = target: factor XI coagulation activity (FXI:C) (Homo sapiens, UniProt P03951); experiment: factor XI coagulation activity; type: in vivo
[2] = tested on: prothrombin time [PT], international normalised ratio [INR]; experiment: prothrombin time; type: in vivo, human; settings: any of the dose levels tested in Part A or Part B
[3] = Part A, single dose 1 mg, fasted
[4] = Part A, single dose 5 mg, fasted
[5] = Part A, single dose 20 mg, fasted
[6] = Part A, single dose 80 mg, fasted
[7] = Part A, single dose 150 mg, fasted
[8] = Part A, single dose 300 mg, fasted

Sequence of factor XI coagulation activity (FXI:C) (P03951 388-625 limits assumed): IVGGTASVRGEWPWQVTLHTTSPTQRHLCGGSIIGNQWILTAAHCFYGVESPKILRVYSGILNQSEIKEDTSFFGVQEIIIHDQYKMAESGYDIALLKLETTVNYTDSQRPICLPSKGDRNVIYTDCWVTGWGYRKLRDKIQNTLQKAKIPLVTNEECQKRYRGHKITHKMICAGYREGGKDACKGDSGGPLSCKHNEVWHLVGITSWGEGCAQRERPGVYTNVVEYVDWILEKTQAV
Sequence of factor XI coagulation activity (FXI:C) (P03951 19-387 partner limits assumed): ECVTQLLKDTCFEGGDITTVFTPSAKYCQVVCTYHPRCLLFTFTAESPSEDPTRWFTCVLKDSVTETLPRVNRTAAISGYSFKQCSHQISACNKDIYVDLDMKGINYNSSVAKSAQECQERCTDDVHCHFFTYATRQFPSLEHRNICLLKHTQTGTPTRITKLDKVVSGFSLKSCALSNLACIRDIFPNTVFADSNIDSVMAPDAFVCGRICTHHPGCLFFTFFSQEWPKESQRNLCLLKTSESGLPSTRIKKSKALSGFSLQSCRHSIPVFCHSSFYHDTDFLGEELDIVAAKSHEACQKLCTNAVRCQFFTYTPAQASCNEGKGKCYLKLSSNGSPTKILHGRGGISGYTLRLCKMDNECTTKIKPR

With `Nc1ccc(-c2nc([C@H]3CCc4cc(-c5cc(Cl)ccc5-n5cnnn5)cc(=O)n43)c(F)[nH]2)c(F)n1` [ONO‐7684] the “time of maximal inhibition of FXI:C post‐dose” value ([1]; Part A, 80 mg fed group) was “approximately 8 hours”, the “time of return of FXI:C and aPTT to near baseline levels post‐dose” value ([1]; Part A, 80, 150 and 300 mg) was ≤ 72 h and the “time the effects on FXI:C and aPTT were maintained” value ([1]; Part A, 80, 150 and 300 mg) was “up to 24 hours”. For the same compound, the “FXI:C Day 1 24 hours RTB, mean ± SD” value [1, 3] was 0.95 ± 0.141, the “FXI:C Day 1 24 hours inhibition, mean ± SD” value [1, 3] was 5 ± 14.1% and the “FXI:C Maximum on treatment inhibition, mean ± SD” value [1, 3] was 13 ± 7.7%. The “FXI:C Day 1 24 hours RTB, mean ± SD” value [1, 4] was 0.95 ± 0.049, the “FXI:C Day 1 24 hours inhibition, mean ± SD” value [1, 4] was 5 ± 4.9% and the “FXI:C Maximum on treatment inhibition, mean ± SD” value [1, 4] was 10 ± 2.6%. For the same compound, the “FXI:C Minimum on treatment RTB, mean ± SD” value (shortened to “FXI:C Minimum … mean ± SD”) [1, 4] was 0.90 ± 0.026, the “FXI:C Day 1 24 hours RTB, mean ± SD” value [1, 5] was 0.95 ± 0.185 and the “FXI:C Day 1 24 hours inhibition, mean ± SD” value [1, 5] was 5 ± 18.5%. The “FXI:C Maximum on treatment inhibition, mean ± SD” value [1, 5] was 29 ± 4.8%, the “FXI:C Minimum … mean ± SD” value [1, 5] was 0.71 ± 0.048 and the “FXI:C Day 1 24 hours RTB, mean ± SD” value [1, 6] was 0.61 ± 0.051. For the same compound, the “FXI:C Day 1 24 hours inhibition, mean ± SD” value [1, 6] was 39 ± 5.1%, the “FXI:C Maximum on treatment inhibition, mean ± SD” value [1, 6] was 69 ± 7.0% and the “FXI:C Minimum … mean ± SD” value [1, 6] was 0.31 ± 0.070. For the same compound, the “FXI:C Day 1 24 hours RTB, mean ± SD” value ([1]; Part A, single dose 80 mg, fed) was 0.61 ± 0.066, the “FXI:C Day 1 24 hours inhibition, mean ± SD” value ([1]; Part A, single dose 80 mg, fed) was 39 ± 6.6% and the “FXI:C Maximum on treatment inhibition, mean ± SD” value ([1]; Part A, single dose 80 mg, fed) was 54 ± 8.9%. The “FXI:C Minimum … mean ± SD” value ([1]; Part A, single dose 80 mg, fed) was 0.46 ± 0.089, the “FXI:C Day 1 24 hours RTB, mean ± SD” value [1, 7] was 0.48 ± 0.057 and the “FXI:C Maximum on treatment inhibition, mean ± SD” value [1, 7] was 78 ± 3.4%. The “FXI:C Minimum … mean ± SD” value [1, 7] was 0.22 ± 0.034, the “FXI:C Day 1 24 hours RTB, mean ± SD” value [1, 8] was 0.26 ± 0.089 and the “FXI:C Day 1 24 hours inhibition, mean ± SD” value [1, 8] was 74 ± 8.9%. For the same compound, the “time of maximal inhibition of FXI:C post‐dose” value ([1]; Part A, single dose of 20–300 mg) was “approximately 4 hours”, the “FXI:C Minimum … mean ± SD” value ([1]; Part B, 80 mg QD for 14 days, fed) was 0.25 ± 0.077 and the “FXI:C Day 1 24 hours RTB, mean ± SD” value ([1]; Part B, 80 mg QD, fed) was 0.67 ± 0.035. The “FXI:C Day 14 24 hours RTB, mean ± SD” value ([1]; Part B, 80 mg QD, fed) was 0.39 ± 0.111, the “FXI:C Minimum … mean ± SD” value ([1]; Part B, 150 mg QD for 14 days, fed) was 0.15 ± 0.052 and the “FXI:C Day 1 24 hours RTB, mean ± SD” value ([1]; Part B, 150 mg QD, fed) was 0.48 ± 0.112. For the same compound, the “FXI:C Day 14 24 hours RTB, mean ± SD” value ([1]; Part B, 150 mg QD, fed) was 0.27 ± 0.096, the “FXI:C Day 1 24 hours RTB, mean ± SD” value ([1]; Part B, 250 mg QD, fed) was 0.33 ± 0.065 and the “FXI:C Day 14 24 hours RTB, mean ± SD” value ([1]; Part B, 250 mg QD, fed) was 0.14 ± 0.053. The “time of maximal inhibition of FXI:C post‐dose” value ([1]; Part B, first dose of 80, 150 and 250 mg) was “approximately 4 hours”, the “effect on INR” value [2] was “did not significantly affect” and the “effect on PT” value [2] was “did not significantly affect”.
